Laboratory results reported in ChEMBL document CHEMBL3763146 (J Med Chem, 2016).

Assays:
[1] = biological target: T1, Beta-3 adrenergic receptor (Rattus norvegicus, UniProt P26255); experiment: Agonist activity at rat beta3 adrenergic receptor expressed in CHO cells assessed as accumulation of cAMP after 30 mins by TR-FRET assay; assay type: functional, cell-based
[2] = biological target: Cytochrome P450 2D6 (Homo sapiens, UniProt P10635); experiment: Inhibition of CYP2D6 in human liver microsomes assessed as dextraomethorphan O-demethylation; assay type: ADME
[3] = biological target: T1, Beta-3 adrenergic receptor; experiment: Agonist activity at rat beta3 adrenergic receptor expressed in CHO cells assessed as accumulation of cAMP after 30 mins by TR-FRET assay in presence of 40% serum; assay type: functional, cell-based
[4] = Plasma clearance in rat at 1 mg/kg, iv or 2 mg/kg, po; assay type: ADME, organism-based
[5] = biological target: Beta-3 adrenergic receptor (Rattus norvegicus) (UniProt P26255); experiment: Agonist activity at rat beta3 adrenergic receptor expressed in CHO cells assessed as accumulation of cAMP after 30 mins by TR-FRET assay relative to (R)-(-)-isoproterenol; assay type: functional, cell-based
[6] = Stability in rat plasma assessed as parent compound remaining at 24 hrs by LC-MS analysis; assay type: ADME, cell-free; settings: read-out: Stability
[7] = system: Rhesus monkey; experiment: Unbound clearance in rhesus monkey at 0.5 mg/kg, iv or 2 mg/kg, po; assay type: ADME, organism-based, Macaca mulatta; settings: in vivo
[8] = biological target: Cytochrome P450 2C19 (Homo sapiens, UniProt P33261); experiment: Inhibition of CYP2C19 in human liver microsomes; assay type: ADME
[9] = system: Rhesus monkey; experiment: Dose normalized total AUC in rhesus monkey at 2 mg/kg, po; assay type: ADME, organism-based, Macaca mulatta; settings: in vivo
[10] = system: Rattus norvegicus; experiment: Increase in circulating glycerol level in iv infused Sprague-Dawley rat after 45 mins by liquid chromatography-tandem mass spectrometric analysis; assay type: functional
[11] = Drug recovery in bile duct cannulated rat bile at 10 mg/kg, po measured over 48 hrs; assay type: ADME, organism-based; settings: read-out: Drug recovery
[12] = biological target: Cytochrome P450 2C8 (Homo sapiens, UniProt P10632); experiment: Inhibition of CYP2C8 in human liver microsomes; assay type: ADME
[13] = biological target: T2, Cytochrome P450 3A4 (Homo sapiens, UniProt P08684); experiment: Induction of CYP3A4 activity in human hepatocytes up to 10 uM; assay type: ADME, cell-based, Hepatocyte
[14] = system: Canis familiaris; experiment: Dose normalized total AUC in dog at 2 mg/kg, po; assay type: ADME, organism-based, Canis lupus familiaris; settings: in vivo
[15] = Plasma clearance in dog at 0.5 mg/kg, iv or 2 mg/kg, po; assay type: ADME, organism-based, Canis lupus familiaris
[16] = Oral bioavailability in rat at 2 mg/kg; assay type: ADME, organism-based; settings: in vivo
[17] = Drug recovery in bile duct cannulated rat bile at 5 mg/kg, iv measured over 48 hrs; assay type: ADME, organism-based; settings: read-out: Drug recovery
[18] = Intrinsic clearance in dog liver microsomes; assay type: ADME, Canis lupus familiaris; settings: read-out: CLH
[19] = biological target: T3, Beta-3 adrenergic receptor (Homo sapiens, UniProt P13945); experiment: Agonist activity at human adrenergic beta3 receptor expressed in CHO cells assessed as accumulation of cAMP after 30 mins by TR-FRET assay in presence of 40% serum; assay type: functional, cell-based
Target sequence in this assay (P13945 whole entry): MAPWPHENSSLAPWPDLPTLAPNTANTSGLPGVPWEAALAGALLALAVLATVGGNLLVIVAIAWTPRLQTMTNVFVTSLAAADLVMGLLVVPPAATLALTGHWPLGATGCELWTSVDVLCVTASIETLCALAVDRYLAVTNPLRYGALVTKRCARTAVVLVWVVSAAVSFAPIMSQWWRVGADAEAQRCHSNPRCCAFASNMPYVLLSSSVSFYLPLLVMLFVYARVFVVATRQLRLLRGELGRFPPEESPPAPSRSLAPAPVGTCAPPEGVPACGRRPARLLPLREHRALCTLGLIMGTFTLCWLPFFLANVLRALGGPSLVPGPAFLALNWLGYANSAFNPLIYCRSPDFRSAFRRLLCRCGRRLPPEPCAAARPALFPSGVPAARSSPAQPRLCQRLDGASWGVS

[20] = biological target: Beta-3 adrenergic receptor (Macaca mulatta) (UniProt Q28524); experiment: Agonist activity at rhesus monkey beta3 adrenergic receptor expressed in CHO cells assessed as accumulation of cAMP after 30 mins by TR-FRET assay relative to (R)-(-)-isoproterenol; assay type: functional, cell-based
[21] = biological target: Voltage-dependent L-type calcium channel subunit alpha-1C (Homo sapiens, UniProt Q13936); experiment: Displacement of [3H]-diltiazem from human Cav1.2 channel
[22] = system: Cynomolgus monkey; experiment: Dose normalized fAUC in cynomolgus monkey at 2 mg/kg, po; assay type: ADME, organism-based, Macaca fascicularis; settings: in vivo
[23] = biological target: Nuclear receptor subfamily 1 group I member 2 (Homo sapiens, UniProt O75469); experiment: Activation of human PX receptor
[24] = biological target: Beta-3 adrenergic receptor (Macaca mulatta, UniProt Q28524); experiment: Agonist activity at rhesus monkey beta3 adrenergic receptor expressed in CHO cells assessed as accumulation of cAMP after 30 mins by TR-FRET assay in presence of 40% serum; assay type: functional, cell-based
[25] = species on record: Rattus norvegicus; experiment: Toxicity in Sprague-Dawley rat assessed as antemortem parameters measured up to 6 months; assay type: organism-based; settings: in vivo
[26] = system: Cynomolgus monkey; experiment: Unbound clearance in cynomolgus monkey at 0.5 mg/kg, iv or 2 mg/kg, po; assay type: ADME, organism-based, Macaca fascicularis; settings: in vivo
[27] = biological target: Voltage-gated inwardly rectifying potassium channel KCNH2 (Homo sapiens, UniProt Q12809); experiment: Binding affinity to human ERG channel
[28] = Plasma clearance in cynomolgus monkey at 0.5 mg/kg, iv or 2 mg/kg, po; assay type: ADME, organism-based, Macaca fascicularis
[29] = Stability in dog plasma assessed as parent compound remaining at 24 hrs by LC-MS analysis; assay type: ADME, cell-free, Canis lupus familiaris; settings: read-out: Stability
[30] = system: Rhesus monkey; experiment: Dose normalized fAUC in rhesus monkey at 2 mg/kg, po; assay type: ADME, organism-based, Macaca mulatta; settings: in vivo
[31] = Stability in rhesus monkey plasma assessed as parent compound remaining at 24 hrs by LC-MS analysis; assay type: ADME, cell-free, Macaca mulatta; settings: read-out: Stability
[32] = Solubility of the compound in buffer at pH <= […]; assay type: physicochemical
[33] = biological target: T2, Cytochrome P450 3A4; experiment: Inhibition of CYP3A4 in human liver microsomes assessed as testosterone 6beta-hydroxylation; assay type: ADME
[34] = Half life in dog at 0.5 mg/kg, iv or 2 mg/kg, po; assay type: ADME, organism-based, Canis lupus familiaris; settings: in vivo
[35] = system: Rattus norvegicus; experiment: Increase in circulating free fatty acid level in iv infused Sprague-Dawley rat after 45 mins by liquid chromatography-tandem mass spectrometric analysis; assay type: functional
[36] = system: Rattus norvegicus; experiment: Unbound clearance in rat at 1 mg/kg, iv or 2 mg/kg, po; assay type: ADME, organism-based; settings: in vivo
[37] = Fraction unbound in rhesus monkey at 0.5 mg/kg, iv or 2 mg/kg, po; assay type: ADME, organism-based, Macaca mulatta; settings: in vivo
[38] = biological target: T3, Beta-3 adrenergic receptor; experiment: Agonist activity at human beta3 adrenergic receptor expressed in CHO cells assessed as accumulation of cAMP after 30 mins by TR-FRET assay relative to (R)-(-)-isoproterenol; assay type: functional, cell-based
Target sequence in this assay (P13945 whole entry, looked up): as the sequence (P13945 whole entry) above

T2 sequence (P08684 whole entry): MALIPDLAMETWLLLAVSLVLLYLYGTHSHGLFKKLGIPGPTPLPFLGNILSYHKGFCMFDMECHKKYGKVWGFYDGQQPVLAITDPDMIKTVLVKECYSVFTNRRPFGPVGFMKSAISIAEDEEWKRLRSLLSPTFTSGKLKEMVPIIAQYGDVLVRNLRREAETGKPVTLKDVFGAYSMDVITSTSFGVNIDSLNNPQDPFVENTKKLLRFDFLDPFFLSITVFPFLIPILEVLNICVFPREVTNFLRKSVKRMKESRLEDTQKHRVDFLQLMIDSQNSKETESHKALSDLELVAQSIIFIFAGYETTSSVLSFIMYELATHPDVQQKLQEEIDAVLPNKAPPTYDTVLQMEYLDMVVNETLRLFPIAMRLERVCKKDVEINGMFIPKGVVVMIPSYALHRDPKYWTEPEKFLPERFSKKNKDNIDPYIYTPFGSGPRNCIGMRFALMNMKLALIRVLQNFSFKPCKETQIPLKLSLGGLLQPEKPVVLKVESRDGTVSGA
T1 sequence (P26255 whole entry): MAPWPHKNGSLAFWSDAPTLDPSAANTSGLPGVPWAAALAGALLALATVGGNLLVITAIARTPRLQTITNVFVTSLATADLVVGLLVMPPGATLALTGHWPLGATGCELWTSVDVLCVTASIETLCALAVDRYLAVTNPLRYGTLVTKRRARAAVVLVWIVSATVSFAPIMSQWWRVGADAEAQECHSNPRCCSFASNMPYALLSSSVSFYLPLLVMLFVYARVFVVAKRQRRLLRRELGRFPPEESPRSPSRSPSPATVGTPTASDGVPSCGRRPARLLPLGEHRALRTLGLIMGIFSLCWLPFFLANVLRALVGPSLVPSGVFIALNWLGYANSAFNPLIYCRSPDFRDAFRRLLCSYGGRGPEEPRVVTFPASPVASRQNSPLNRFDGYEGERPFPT
Cytochrome P450 2C8, sequence (P10632 whole entry): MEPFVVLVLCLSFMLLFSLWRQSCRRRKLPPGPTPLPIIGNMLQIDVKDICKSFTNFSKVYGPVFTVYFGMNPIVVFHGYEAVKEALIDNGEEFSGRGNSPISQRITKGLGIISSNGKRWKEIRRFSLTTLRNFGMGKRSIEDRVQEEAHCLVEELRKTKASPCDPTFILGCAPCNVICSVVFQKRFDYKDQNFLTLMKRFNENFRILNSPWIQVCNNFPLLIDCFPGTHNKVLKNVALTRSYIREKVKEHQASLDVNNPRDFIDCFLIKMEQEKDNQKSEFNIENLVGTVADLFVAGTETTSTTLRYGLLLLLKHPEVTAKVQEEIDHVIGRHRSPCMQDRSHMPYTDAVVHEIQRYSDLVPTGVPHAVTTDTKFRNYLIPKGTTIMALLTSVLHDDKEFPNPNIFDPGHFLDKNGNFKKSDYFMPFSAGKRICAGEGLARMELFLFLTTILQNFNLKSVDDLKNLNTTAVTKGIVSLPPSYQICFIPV
Cytochrome P450 2D6, sequence (P10635 whole entry): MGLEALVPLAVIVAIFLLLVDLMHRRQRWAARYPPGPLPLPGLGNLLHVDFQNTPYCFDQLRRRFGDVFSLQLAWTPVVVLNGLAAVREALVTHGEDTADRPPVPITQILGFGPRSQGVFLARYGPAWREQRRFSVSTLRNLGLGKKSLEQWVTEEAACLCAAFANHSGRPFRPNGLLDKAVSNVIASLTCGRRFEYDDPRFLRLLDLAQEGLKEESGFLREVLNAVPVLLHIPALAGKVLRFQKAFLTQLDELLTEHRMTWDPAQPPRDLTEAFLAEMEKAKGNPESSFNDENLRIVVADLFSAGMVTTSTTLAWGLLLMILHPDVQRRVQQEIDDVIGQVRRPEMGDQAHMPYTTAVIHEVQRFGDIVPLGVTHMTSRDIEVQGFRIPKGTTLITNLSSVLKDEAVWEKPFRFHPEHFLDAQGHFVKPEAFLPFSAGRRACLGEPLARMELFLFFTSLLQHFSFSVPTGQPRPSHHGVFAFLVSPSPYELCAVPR
Voltage-dependent L-type calcium channel subunit alpha-1C, sequence (Q13936 whole entry): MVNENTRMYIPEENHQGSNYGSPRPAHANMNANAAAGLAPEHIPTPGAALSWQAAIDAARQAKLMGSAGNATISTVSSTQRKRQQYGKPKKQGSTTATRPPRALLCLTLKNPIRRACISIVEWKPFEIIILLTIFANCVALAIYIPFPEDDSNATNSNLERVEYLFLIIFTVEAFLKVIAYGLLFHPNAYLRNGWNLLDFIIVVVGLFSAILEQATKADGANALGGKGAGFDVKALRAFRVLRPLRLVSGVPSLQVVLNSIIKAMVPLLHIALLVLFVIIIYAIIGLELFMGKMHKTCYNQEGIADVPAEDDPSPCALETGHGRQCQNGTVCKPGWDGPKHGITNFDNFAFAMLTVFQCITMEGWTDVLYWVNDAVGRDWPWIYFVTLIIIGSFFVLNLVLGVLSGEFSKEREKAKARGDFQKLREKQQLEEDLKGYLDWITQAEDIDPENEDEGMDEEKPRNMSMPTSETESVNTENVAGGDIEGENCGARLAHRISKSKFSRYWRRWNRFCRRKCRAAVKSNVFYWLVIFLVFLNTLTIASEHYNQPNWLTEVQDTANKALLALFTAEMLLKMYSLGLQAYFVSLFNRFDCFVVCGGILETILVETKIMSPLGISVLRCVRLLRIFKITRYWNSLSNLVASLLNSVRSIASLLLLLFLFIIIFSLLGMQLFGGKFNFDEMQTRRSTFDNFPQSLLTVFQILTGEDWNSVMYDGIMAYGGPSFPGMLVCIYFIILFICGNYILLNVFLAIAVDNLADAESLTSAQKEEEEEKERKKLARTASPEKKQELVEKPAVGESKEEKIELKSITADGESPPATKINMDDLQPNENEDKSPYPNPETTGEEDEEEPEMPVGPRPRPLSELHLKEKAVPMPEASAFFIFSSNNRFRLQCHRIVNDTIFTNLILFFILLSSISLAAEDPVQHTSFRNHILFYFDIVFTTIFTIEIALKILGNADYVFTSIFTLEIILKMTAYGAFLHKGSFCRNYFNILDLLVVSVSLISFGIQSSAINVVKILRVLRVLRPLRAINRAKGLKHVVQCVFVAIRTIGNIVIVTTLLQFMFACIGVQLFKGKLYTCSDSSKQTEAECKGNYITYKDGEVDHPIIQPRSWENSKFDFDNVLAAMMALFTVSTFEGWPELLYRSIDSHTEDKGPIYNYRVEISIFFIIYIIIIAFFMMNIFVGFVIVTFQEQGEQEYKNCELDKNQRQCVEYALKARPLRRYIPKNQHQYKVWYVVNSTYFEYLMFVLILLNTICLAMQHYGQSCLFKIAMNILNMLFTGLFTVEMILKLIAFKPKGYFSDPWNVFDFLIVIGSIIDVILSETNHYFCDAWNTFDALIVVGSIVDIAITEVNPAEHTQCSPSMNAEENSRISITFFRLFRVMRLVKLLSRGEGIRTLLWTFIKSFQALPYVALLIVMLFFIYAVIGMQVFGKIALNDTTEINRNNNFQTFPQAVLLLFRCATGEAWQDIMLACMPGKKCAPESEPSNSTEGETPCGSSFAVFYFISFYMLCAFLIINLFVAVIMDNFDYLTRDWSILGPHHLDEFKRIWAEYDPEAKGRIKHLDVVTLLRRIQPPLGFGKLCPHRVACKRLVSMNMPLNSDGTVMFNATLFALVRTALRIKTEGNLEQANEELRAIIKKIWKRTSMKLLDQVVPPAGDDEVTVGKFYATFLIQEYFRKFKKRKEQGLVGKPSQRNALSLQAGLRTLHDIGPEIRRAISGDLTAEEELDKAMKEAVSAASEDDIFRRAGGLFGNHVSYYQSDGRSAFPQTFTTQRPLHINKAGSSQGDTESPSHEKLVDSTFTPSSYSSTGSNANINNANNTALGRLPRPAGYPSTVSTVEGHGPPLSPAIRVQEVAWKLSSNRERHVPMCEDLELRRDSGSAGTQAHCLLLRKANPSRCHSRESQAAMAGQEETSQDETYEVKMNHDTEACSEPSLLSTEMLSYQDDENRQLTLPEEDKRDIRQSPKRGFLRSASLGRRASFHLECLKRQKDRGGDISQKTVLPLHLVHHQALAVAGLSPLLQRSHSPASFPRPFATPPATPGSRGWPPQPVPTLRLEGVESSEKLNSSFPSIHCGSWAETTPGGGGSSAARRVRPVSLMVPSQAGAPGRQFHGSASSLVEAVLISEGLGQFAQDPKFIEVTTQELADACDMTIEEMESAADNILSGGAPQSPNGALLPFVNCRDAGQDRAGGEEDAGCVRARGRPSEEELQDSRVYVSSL
Beta-3 adrenergic receptor (Macaca mulatta), sequence (Q28524 whole entry): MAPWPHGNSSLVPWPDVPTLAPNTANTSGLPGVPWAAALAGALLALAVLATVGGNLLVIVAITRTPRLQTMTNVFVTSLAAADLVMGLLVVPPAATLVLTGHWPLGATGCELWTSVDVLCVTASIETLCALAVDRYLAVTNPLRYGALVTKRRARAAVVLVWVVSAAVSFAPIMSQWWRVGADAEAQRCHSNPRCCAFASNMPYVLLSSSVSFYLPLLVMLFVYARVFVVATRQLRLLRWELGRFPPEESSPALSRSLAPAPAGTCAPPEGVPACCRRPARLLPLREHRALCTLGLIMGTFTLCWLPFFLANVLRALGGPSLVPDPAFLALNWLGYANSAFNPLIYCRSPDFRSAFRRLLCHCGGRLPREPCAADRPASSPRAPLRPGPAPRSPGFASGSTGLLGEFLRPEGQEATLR
Beta-3 adrenergic receptor (Macaca mulatta, UniProt Q28524), sequence (Q28524 whole entry): as above

- EC50 [1]: 86 nM
- IC50 [2]: > 100000 nM
- EC50 [3]: 122 nM
- clearance [4]: 14 mL/min/kg
- max activation [5]: 83%
- remaining at 24 h [6]: 100%
- CL free [7]: 33 mL/min/kg
- IC50 [8]: > 100000 nM
- AUC/dose [9]: 540 nM·h/mg/kg
- dose excreted at 48 h [11]: 36%
- IC50 [12]: > 100000 nM
- Activity [13]: Not Active
- AUC/dose [14]: 1200 nM·h/mg/kg
- clearance [15]: 15 mL/min/kg
- bioavailability [16]: 20%
- dose excreted at 48 h [17]: 33%
- CLint scaled [18]: 13 mL/min/kg
- EC50 [19]: 1.6 nM
- max activation [20]: 87%
- fAUC/dose [22]: 500 nM·h/mg/kg
- EC50 [23]: > 30000 nM
- EC50 [24]: 7.1 nM
- CL free [26]: 34 mL/min/kg
- clearance [28]: 20 mL/min/kg
- remaining at 24 h [29]: 100%
- fAUC/dose [30]: 260 nM·h/mg/kg
- remaining at 24 h [31]: 93%
- solubility [32]: > 4000 µg/mL
- IC50 [33]: > 100000 nM
- half-life [34]: 13 h
- CL free [36]: 67 mL/min/kg
- fraction unbound [37]: 0.49
- max activation [38]: 84%
SMILES: O=C(Nc1ccc(C[C@@H]2CC[C@H]([C@H](O)c3ccccc3)N2)cc1)[C@@H]1CCc2nccc(=O)n21 [VIBEGRON]
- Activity [10]: Dose-dependent effect
- minimal effective dose ([10]; 0.75 h, read-out: MED): 0.3 mg/kg
- IC50 [21]: > 30000 nM
- Activity [25]: Non-toxic
- IC50 [27]: > 30000 nM
- Activity [35]: Dose-dependent effect
- minimal effective dose ([35]; 0.75 h, read-out: MED): 0.3 mg/kg
